Biological target: T1, human complement factor D (Homo sapiens, UniProt P00746)
T1 construct: purchased R&D Systems 1824-SE
Test: In vitro enzyme inhibition (Z-Lys-SBzl/DTNB absorbance assay)
Format: biochemical
Conditions: Complement Factor D (R&D Systems), substrate Z-Lys-SBzl, A405 nm; read-out: CFD IC50
Summary of the method: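 Factor D (6.25 ng/μL before addition) preincubated 5 min RT with compound (8 points from 50 μM, 6-fold, 0.5% DMSO final) in 50 mM Tris/HCl pH 7.5, 1 M NaCl, then Z-Lys-SBzl/DTNB added (200 μM each before addition). A405 read kinetically every 30 s for 60 min; IC50 from variable-slope fit, controls with and without enzyme.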

T1 sequence (P00746 26-253): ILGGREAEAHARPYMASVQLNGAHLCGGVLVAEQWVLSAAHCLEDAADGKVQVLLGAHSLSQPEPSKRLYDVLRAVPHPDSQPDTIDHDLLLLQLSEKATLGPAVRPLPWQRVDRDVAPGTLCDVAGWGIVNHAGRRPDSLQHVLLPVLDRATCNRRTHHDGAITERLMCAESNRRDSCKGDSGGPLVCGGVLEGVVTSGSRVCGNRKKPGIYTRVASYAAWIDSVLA

Row | SMILES | IC50
1 | CC(=O)c1nn(CC(=O)N2[C@H](C(=O)Nc3cccc(Cl)n3)C[C@@H]3CCC[C@@H]32)c2ccc(Cl)cc12 [Example 178, (2S,3aS,6aS)-1-(2-(3-acetyl-5-chloro-1H-indazol-1-yl)acetyl)-N-(6-chloropyridin-2-yl)octahydrocyclopenta[b]pyrrole-2-carboxamide] | 100 to 1000 nM
2 | CC(=O)c1nn(CC(=O)N2[C@@H]3CC[C@@H](C3)[C@H]2C(=O)Nc2cccc(Cl)n2)c2ccc(Cl)cc12 [Example 87, (1R,3S,4S)-2-(2-(3-acetyl-5-chloro-1H-indazol-1-yl)acetyl)-N-(6-chloropyridin-2-yl)-2-azabicyclo[2.2.1]heptane-3-carboxamide] | 100 to 1000 nM
3 | COC(=O)c1nn(CC(=O)N2[C@@H]3CC[C@@H](C3)[C@H]2C(=O)Nc2cccc(Cl)n2)c2ccccc12 [Example 82, methyl 1-(2-((1R,3S,4S)-3-((6-chloropyridin-2-yl)carbamoyl)-2-azabicyclo[2.2.1]heptan-2-yl)-2-oxoethyl)-1H-indazole-3-carboxylate] | 1000 to 10000 nM
4 | NC(=O)c1nn(CC(=O)N2[C@@H]3CC[C@@H](C3)[C@H]2C(=O)NCc2cccc(Cl)n2)c2ccccc12 [Example 52, 1-(2-((1R,3S,4S)-3-(((6-chloropyridin-2-yl)methyl)carbamoyl)-2-azabicyclo[2.2.1]heptan-2-yl)-2-oxoethyl)-1H-indazole-3-carboxamide] | > 10000 nM
5 | NC(=O)c1nn(CC(=O)N2[C@H]3CC[C@H](C3)[C@@H]2C(=O)Nc2cccc(C(F)(F)F)n2)c2ccccc12 [Example 17, 1-(2-oxo-2-((1S,3R,4R)-3-((6-(trifluoromethyl)pyridin-2-yl)carbamoyl)-2-azabicyclo[2.2.1]heptan-2-yl)ethyl)-1H-indazole-3-carboxamide] | 1000 to 10000 nM
6 | NC(=O)c1nn(CC(=O)N2[C@@H]3CC[C@@H](C3)[C@H]2C(=O)NCc2c(C(=O)O)ccc(Cl)c2F)c2ccccc12 [Example 117, 2-(((1R,3S,4S)-2-(2-(3-carbamoyl-1H-indazol-1-yl)acetyl)-2-azabicyclo[2.2.1]heptane-3-carboxamido)methyl)-4-chloro-3-fluorobenzoic acid] | 1000 to 10000 nM
7 | CC(=O)c1nn(CC(=O)N2[C@@H]3CC[C@@H](C3)[C@H]2C(=O)Nc2cccc(Cl)n2)c2ccc(Br)cc12 [Example 90, (1R,3S,4S)-2-(2-(3-acetyl-5-bromo-1H-indazol-1-yl)acetyl)-N-(6-chloropyridin-2-yl)-2-azabicyclo[2.2.1]heptane-3-carboxamide] | 100 to 1000 nM

Other lines, results leading:

Row | IC50 | SMILES
8 | 1000 to 10000 nM | NC(=O)c1nn(CC(=O)N2[C@@H]3CC[C@@H](C3)[C@H]2C(=O)NCc2cc(CO)cc(Cl)c2F)c2ccccc12 [Example 114, 1-(2-((1R,3S,4S)-3-((3-chloro-2-fluoro-5-(hydroxymethyl)benzyl)carbamoyl)-2-azabicyclo[2.2.1]heptan-2-yl)-2-oxoethyl)-1H-indazole-3-carboxamide]
9 | 1000 to 10000 nM | NC(=O)c1nn(CC(=O)N2[C@H]3CC[C@H](CC3)[C@@H]2C(=O)NCc2cccc(Cl)c2F)c2ccccc12 [Example 148, (1S,3R,4S)-2-(2-(3-carbamoyl-1H-indazol-1-yl)acetyl)-N-(3-chloro-2-fluorobenzyl)-2-azabicyclo[2.2.2]octane-3-carboxamide]
10 | 100 to 1000 nM | COC(=O)Cc1ccc2c(c1)c(C(N)=O)nn2CC(=O)N1[C@@H]2CC[C@@H](C2)[C@H]1C(=O)NCc1cccc(Cl)c1F [Example 130, methyl 2-(3-carbamoyl-1-(2-((1R,3S,4S)-3-((3-chloro-2-fluorobenzyl)carbamoyl)-2-azabicyclo[2.2.1]heptan-2-yl)-2-oxoethyl)-1H-indazol-5-yl)acetate]
11 | 100 to 1000 nM | Cc1ccc2c(c1)c(C(N)=O)nn2CC(=O)N1[C@H](C(=O)NCc2cccc(Cl)c2F)C[C@@H]2CCC[C@@H]21 [Example 165, 1-(2-((2S,3aS,6aS)-2-((3-chloro-2-fluorobenzyl)carbamoyl)hexahydrocyclopenta[b]pyrrol-1(2H)-yl)-2-oxoethyl)-5-methyl-1H-indazole-3-carboxamide]

Reference: US20190127366A1 (LifeSci Pharmaceuticals, Inc., priority 2015, published 2019)
